Columns and labels:
[1] = molecular target: T1, BA/F3-FLT3-ITD + D835Y cells (Homo sapiens, UniProt P36888, D835Y, cells depend on it, form not given); test: Cell proliferation assay (CellTiter-Glo), engineered BA/F3 cells; type: cell-based, murine; conditions: BaF3 FLT3 ITD/D835Y cells, 3d-Growth; read-out: BaF3_FLT3 ITD/D835Y 3d-Growth: IC50
T1 sequence (P36888 1-993 D835Y): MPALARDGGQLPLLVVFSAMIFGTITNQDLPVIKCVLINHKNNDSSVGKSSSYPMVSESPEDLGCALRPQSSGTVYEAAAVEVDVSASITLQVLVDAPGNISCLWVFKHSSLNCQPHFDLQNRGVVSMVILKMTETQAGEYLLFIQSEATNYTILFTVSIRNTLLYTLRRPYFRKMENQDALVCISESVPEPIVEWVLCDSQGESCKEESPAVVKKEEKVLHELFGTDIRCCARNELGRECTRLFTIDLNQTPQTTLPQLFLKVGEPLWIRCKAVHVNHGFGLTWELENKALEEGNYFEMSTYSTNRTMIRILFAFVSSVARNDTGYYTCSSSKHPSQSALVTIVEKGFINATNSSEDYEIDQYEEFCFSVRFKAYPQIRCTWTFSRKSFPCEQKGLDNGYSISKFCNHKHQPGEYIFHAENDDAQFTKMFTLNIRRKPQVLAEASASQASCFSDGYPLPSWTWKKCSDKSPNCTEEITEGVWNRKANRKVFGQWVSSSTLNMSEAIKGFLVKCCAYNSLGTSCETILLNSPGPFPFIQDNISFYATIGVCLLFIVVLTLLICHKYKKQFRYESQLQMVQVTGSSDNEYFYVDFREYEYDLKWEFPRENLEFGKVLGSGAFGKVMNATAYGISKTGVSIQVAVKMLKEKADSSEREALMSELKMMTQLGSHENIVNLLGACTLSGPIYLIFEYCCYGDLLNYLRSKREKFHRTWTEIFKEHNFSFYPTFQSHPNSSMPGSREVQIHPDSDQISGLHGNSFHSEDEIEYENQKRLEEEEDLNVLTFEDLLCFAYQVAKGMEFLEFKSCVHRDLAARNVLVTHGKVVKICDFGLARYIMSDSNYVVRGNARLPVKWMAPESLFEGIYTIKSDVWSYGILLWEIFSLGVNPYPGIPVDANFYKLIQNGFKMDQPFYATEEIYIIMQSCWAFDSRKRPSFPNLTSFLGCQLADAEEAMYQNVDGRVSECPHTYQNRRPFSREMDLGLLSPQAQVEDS
Excerpt: The FLT3 inhibitors may be assessed using the MOLM-14, Acute Myeloid Leukemia cell line that endogenously expresses FLT3 ITD or derivatives of the human FLT3 AML cell line which acquired the D835Y (activation loop) of F691L (gatekeeper) mutation after selection in escalating doses of the FLT3 Inhibitor AC220. FLT3 inhibitors may also be assessed using cells that are engineered to express mutant FLT3. For engineered cells, murine Ba/F3 cells were transfected with full-length FLT3 ITD/D835Y mutations. The parental BA/F3 cells are dependent upon Interleukin-3 (IL-3) for survival, and introduction of the FLT3 constructs rendered these cells dependent upon FLT3 kinase activity when cultured in the absences of IL-3. Engineered BA/F3 cell growth assays can be performed in either the […] of IL-3, to assess the compound inhibition of FLT3 or to detect the presence of off-target activity, respectively. Inhibitors of FLT3 kinase activity reduce or eliminate the FLT3 oncogenic signaling, resulting in reduced cell proliferation. This inhibition is measured as a function of compound concentration to asses IC50 values.
Cell lines used in proliferation assays are as follows in Table 3:
Cells were seeded at 1×10^4 cells per well of a 96 well cell culture plate in 50 μl of cell culture medium. Compounds were dissolved in DMSO, typically at a concentration of 0.5 mM and were serially diluted 1:3 for a total of eight points and added to the cells to final concentrations of […], 0.0041, 0.0014 and 0.00046 μM in 100 μl cell culture medium (final concentration 0.2% DMSO). […] The cells were incubated at 37° C., 5% CO2 for three days. CellTiter-Glo Buffer (Promega Cell Viability Assay catalog #G7573) and substrate were equilibrated to room temperature, and enzyme/substrate Recombinant Firefly Luciferase/Beetle Luciferin was reconstituted. The cell plates were equilibrated to room temperature for 30 minutes, then lysed by addition of an equivalent volume of the Celltiter-Glo Reagent. The plate was mixed for 10 minutes on a plate shaker to lyse the cells. The plates were read on a Tecan M1000 using Luminescence protocol modified to read 0.1 s per well. The luminescence reading assesses the ATP content, which correlates directly with cell number such that the reading as a function of compound concentration was used to determine the IC50 value.

c-KIT = molecular target: T2, c-KIT (Homo sapiens, UniProt P10721); test: AlphaScreen kinase assay with recombinant enzyme, c-KIT; type: biochemical; conditions: 100ATP, 8pt, GMean
T2 construct: purchased Millipore 14-559K
Procedure: In order to determine the effect of compounds on FLT3 catalytic activity, kinase assays using recombinant enzymes and AlphaScreen® technology have been established. The catalytic activity of c-kit activity was also measured to determine selectivity of the compounds. When the kinases are catalytically active, they phosphorylate a biotinylated peptide substrate on tyrosine residues. Using AlphaScreen® technology, the ability of the compounds to affect the catalytic activity of the kinases can be measured quantitatively. The peptide substrate is immobilized by the AlphaScreen® Streptavidin Donor beads and, upon phosphorylation by a tyrosine kinase, can bind to AlphaScreen® Anti-Phosphotyrosine (PY20) Acceptor beads. Upon excitation of these beads with laser light at 680 nm, singlet oxygen is produced. This singlet oxygen is rapidly quenched, unless the AlphaScreen® Anti-Phosphotyrosine (PY20) Acceptor beads are in close proximity, in which case a proximity signal can be measured at 580 nm. In the presence of catalytic activity, there is a very strong proximity signal. Selective kinase inhibitors affect a decrease in this proximity signal through a decrease in tyrosine phosphorylation of the peptide substrate.
The assay was performed as summarized below.
Poly (Glu4-Tyr) Peptide, biotin conjugate [Biotin-GG(EEEEY)10EE] (SEQ ID NO: 4)
Final concentration=30 nM
Final concentration for IC50 determination=10 μM (FLT3-D835Y or FLT3-ITD) or 100 μM (c-KIT)
AlphaScreen® Phosphotyrosine (PY20) Assay Kit
Final concentration=10 μg/mL
Dilute compounds in DMSO to 20× final concentration.
Add 1 μl of compound to each well of 384 well reaction plate (Perkin Elmer #6005359).
Mix enzyme and Poly (Glu4-Tyr) Peptide substrate at 1.33× final concentration in assay buffer.
Mix ATP at 5× final concentration in assay buffer.
Add 15 μL enzyme/substrate mixture to the reaction plate.
Add 4 μL of ATP to the reaction plate.
Mix Streptavidin Donor beads at 6× final concentration in Stop/Detection buffer.
Add 5 μL Streptavidin Donor beads to the reaction plate. Centrifuge 1 minute, shake to mix, and incubate at room temperature for 20 minutes.
Mix Anti-Phosphotyrosine (PY20) Acceptor beads at 6× final concentration in Stop/Detection buffer.
Add 5 μL Anti-Phosphotyrosine (PY20) beads to the reaction plate.
Centrifuge 1 minute, shake to mix, and incubate at room temperature for 60 minutes.
Read plate on Wallac EnVision™ 2103 Multilabel Reader.

T2 sequence (P10721 26-976): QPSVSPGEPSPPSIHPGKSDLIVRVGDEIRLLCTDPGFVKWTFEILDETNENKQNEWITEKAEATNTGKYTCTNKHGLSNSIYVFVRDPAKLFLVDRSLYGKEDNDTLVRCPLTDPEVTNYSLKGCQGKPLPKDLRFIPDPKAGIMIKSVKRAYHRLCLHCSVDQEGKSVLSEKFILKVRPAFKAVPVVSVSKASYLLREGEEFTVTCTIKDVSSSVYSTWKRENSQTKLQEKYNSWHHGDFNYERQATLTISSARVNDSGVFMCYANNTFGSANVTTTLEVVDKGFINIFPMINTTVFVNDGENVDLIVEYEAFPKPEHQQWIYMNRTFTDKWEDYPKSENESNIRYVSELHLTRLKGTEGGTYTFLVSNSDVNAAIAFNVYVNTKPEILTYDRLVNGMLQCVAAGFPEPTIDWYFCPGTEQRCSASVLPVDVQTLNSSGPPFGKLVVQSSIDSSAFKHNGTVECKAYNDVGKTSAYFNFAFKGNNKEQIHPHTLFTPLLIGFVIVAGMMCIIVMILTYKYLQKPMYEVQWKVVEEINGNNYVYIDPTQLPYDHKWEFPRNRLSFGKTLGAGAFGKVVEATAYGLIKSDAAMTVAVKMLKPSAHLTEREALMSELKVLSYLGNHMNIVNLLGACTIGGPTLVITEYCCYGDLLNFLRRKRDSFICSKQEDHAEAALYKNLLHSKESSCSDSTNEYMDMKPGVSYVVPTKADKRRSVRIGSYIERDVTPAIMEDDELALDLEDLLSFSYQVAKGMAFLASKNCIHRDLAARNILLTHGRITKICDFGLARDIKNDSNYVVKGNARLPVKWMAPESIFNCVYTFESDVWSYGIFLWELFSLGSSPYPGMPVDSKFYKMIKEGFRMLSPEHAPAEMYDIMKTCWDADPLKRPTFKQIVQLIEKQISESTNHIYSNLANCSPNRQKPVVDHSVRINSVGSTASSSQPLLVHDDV

SMILES | GI50 [1] | IC50 (c-KIT)
N#C[C@@H]1CCN(C(=O)c2cccc(-c3cnc4[nH]c(-c5ccccc5)cc4c3)n2)C1 [Compound P-0122, (3R)-1-[6-(2-phenyl-1H-pyrrolo[2,3-b]pyridin-5-yl)pyridine-2-carbonyl]pyrrolidine-3-carbonitrile] | 0.0001 to 10 µM | –
COC1CCN(C(=O)c2cccc(-c3cnc4[nH]c(-c5ccccc5)cc4c3)n2)C1 (centres unmarked) [Compound P-0095, (3-methoxypyrrolidin-1-yl)-[6-(2-phenyl-1H-pyrrolo[2,3-b]pyridin-5-yl)-2-pyridyl]methanone] | 0.0001 to 10 µM | 10 to 50 µM
CC(C)(C#N)CNC(=O)c1cccc(-c2cnc3[nH]c(-c4cnn(CC(F)(F)F)c4)cc3c2)n1 [Compound P-0113, N-(2-cyano-2-methyl-propyl)-6-[2-[1-(2,2,2-trifluoroethyl)pyrazol-4-yl]-1H-pyrrolo[2,3-b]pyridin-5-yl]pyridine-2-carboxamide] | 0.0001 to 10 µM | 0.0001 to 10 µM
CC(C)(C#N)NC(=O)c1cccc(-c2cnc3[nH]c(-c4ccccc4)cc3c2)n1 [Compound P-0118, N-(1-cyano-1-methyl-ethyl)-6-(2-phenyl-1H-pyrrolo[2,3-b]pyridin-5-yl)pyridine-2-carboxamide] | 0.0001 to 10 µM | 50 to 100 µM
O=C(c1cccc(-c2cnc3[nH]c(-c4ccccc4)cc3c2)n1)N1CCC(F)(F)C1 [Compound P-0093, (3,3-difluoropyrrolidin-1-yl)-[6-(2-phenyl-1H-pyrrolo[2,3-b]pyridin-5-yl)-2-pyridyl]methanone] | 0.0001 to 10 µM | 50 to 100 µM
CNC(=O)C1CCN(C(=O)c2cccc(-c3cnc4[nH]c(-c5ccccc5)cc4c3)n2)C1 (centres unmarked) [Compound P-0096, N-methyl-1-[6-(2-phenyl-1H-pyrrolo[2,3-b]pyridin-5-yl)pyridine-2-carbonyl]pyrrolidine-3-carboxamide] | 0.0001 to 10 µM | 10 to 50 µM
N#CCCNC(=O)c1cccc(-c2cnc3[nH]c(-c4ccccc4)c(Cl)c3c2)n1 [Compound P-0125, 6-(3-chloro-2-phenyl-1H-pyrrolo[2,3-b]pyridin-5-yl)-N-(2-cyanoethyl)pyridine-2-carboxamide] | 0.0001 to 10 µM | –
CC(C)(C#N)CNC(=O)c1cccc(-c2cnc3[nH]c(-c4ccccc4)c(Br)c3c2)n1 [Compound P-0126, 6-(3-bromo-2-phenyl-1H-pyrrolo[2,3-b]pyridin-5-yl)-N-(2-cyano-2-methyl-propyl)pyridine-2-carboxamide] | 0.0001 to 10 µM | –
N#CCCNC(=O)c1cccc(-c2cnc3[nH]c(-c4ccccc4)cc3c2)n1 [Compound P-0099, N-(2-cyanoethyl)-6-(2-phenyl-1H-pyrrolo[2,3-b]pyridin-5-yl)pyridine-2-carboxamide] | 0.0001 to 10 µM | 50 to 100 µM
CN[C@@H]1CCN(C(=O)c2ccc(-c3cnc4[nH]c(-c5ccccc5)cc4c3)s2)C1 [Compound P-0106, [(3R)-3-(methylamino)pyrrolidin-1-yl]-[5-(2-phenyl-1H-pyrrolo[2,3-b]pyridin-5-yl)-2-thienyl]methanone] | 0.0001 to 10 µM | 0.0001 to 10 µM
O=S(=O)(NC1CC1)c1cccc(-c2cnc3[nH]c(-c4ccccc4)cc3c2)n1 [Compound P-0109, N-cyclopropyl-6-(2-phenyl-1H-pyrrolo[2,3-b]pyridin-5-yl)pyridine-2-sulfonamide] | 0.0001 to 10 µM | 50 to 100 µM
CC(C)(C#N)CNC(=O)c1cccc(-c2cnc3[nH]c(-c4ccccc4)cc3c2)n1 [Compound P-0100, N-(2-cyano-2-methyl-propyl)-6-(2-phenyl-1H-pyrrolo[2,3-b]pyridin-5-yl)pyridine-2-carboxamide] | 0.0001 to 10 µM | 10 to 50 µM
CS(=O)(=O)N1CCC(NS(=O)(=O)c2cccc(-c3cnc4[nH]c(-c5ccccc5)cc4c3)n2)C1 (centres unmarked) [Compound P-0107, N-(1-methylsulfonylpyrrolidin-3-yl)-6-(2-phenyl-1H-pyrrolo[2,3-b]pyridin-5-yl)pyridine-2-sulfonamide] | 0.0001 to 10 µM | 50 to 100 µM
N#CC1CCN(C(=O)c2cccc(-c3cnc4[nH]c(-c5ccccc5)cc4c3)n2)C1 (centres unmarked) [Compound P-0105, 1-[6-(2-phenyl-1H-pyrrolo[2,3-b]pyridin-5-yl)pyridine-2-carbonyl]pyrrolidine-3-carbonitrile] | 0.0001 to 10 µM | 10 to 50 µM
CC(C)(C#N)CNC(=O)c1cccc(-c2cnc3[nH]c(-c4ccccc4)c(I)c3c2)n1 [Compound P-0127, N-(2-cyano-2-methyl-propyl)-6-(3-iodo-2-phenyl-1H-pyrrolo[2,3-b]pyridin-5-yl)pyridine-2-carboxamide] | 0.0001 to 10 µM | –
N#CC1(NC(=O)c2cccc(-c3cnc4[nH]c(-c5ccccc5)cc4c3)n2)CC1 [Compound P-0111, N-(1-cyanocyclopropyl)-6-(2-phenyl-1H-pyrrolo[2.3-b]pyridin-5-yl]pyridine-2-carboxamide] | 0.0001 to 10 µM | –
N#CC1CCN(S(=O)(=O)c2cccc(-c3cnc4[nH]c(-c5ccccc5)cc4c3)n2)C1 (centres unmarked) [Compound P-0121, 1-[[6-(2-phenyl-1H-pyrrolo[2,3-b]pyridin-5-yl)-2-pyridyl]sulfonyl]pyrrolidine-3-carbonitrile] | 0.0001 to 10 µM | –
CC(C)(C#N)NC(=O)c1cccc(-c2cnc3[nH]c(-c4cnn(C(F)F)c4)cc3c2)n1 [Compound P-0164, N-(2-cyanopropan-2-yl)-6-(2-(1-(difluoromethyl)-1H-pyrazol-4-yl)-1H-pyrrolo[2,3-b]pyridin-5-yl)picolinamide] | – | 50 to 100 µM

Source: patent publication US9938273B2 (Plexxikon Inc., priority 2015, dated 2018)
